Measurements taken from patent US12005050B2, “Methods for preventing or treating H. pylori infection” (TENNOR THERAPEUTICS (SUZHOU) LIMITED, priority 2022, dated 2024).

Experiment: Safety tolerance assessment, adverse events (Example 1)
Assay type: in vivo, human
Method: 40 asymptomatic healthy patients that are positive for Helicobacter pylori infection were admitted to the trial. The 40 patients were randomly allocated to four groups at a ratio of 1:1:1:1.
Different therapies were administered to the patients of each group according to the schedule below: • Group A: • Compound I capsule 200 mg/time (2 capsules, 100 mg/capsule), twice per day (BID); rabeprazole sodium enteric-coated tablet 20 mg/time (1 tablet, 20 mg/tablet), twice per day (BID) • Group B: • Compound I capsule 400 mg/time (4 capsules, 100 mg/capsule), twice per day (BID); rabeprazole sodium enteric-coated tablet 20 mg/time (1 tablet, 20 mg/tablet), twice per day (BID) • Group C: • Compound I capsule 600 mg/time (6 capsules, 100 mg/capsule), twice per day (BID); rabeprazole sodium enteric-coated tablet 20 mg/time (1 tablet, 20 mg/tablet), twice per day (BID) • Group D: • Compound I capsule 400 mg/time (4 capsules, 100 mg/capsule), twice per day (BID); rabeprazole sodium enteric-coated tablet 20 mg/time (1 tablet, 20 mg/tablet), twice per day (BID); amoxicillin capsule 1 g/time (4 capsules, 0.25 g/capsule), twice per day (BID)
All patients were admitted to the clinical research center 1 day before dosing (D-1 Day), randomly allocated to respective groups and completed examinations for safety and baseline indicators. From day 1 to day 14, respective therapies/drugs were orally administered to the patients within 30 minutes after breakfast and dinner. On day 15, the last dose was administered orally to the patients within 30 minutes after breakfast. During the trial, each patient was dosed for 29 times in total. All patients left the hospital after completing a safety tolerance assessment on day 17 and returned to the clinical research center for urea breath test (UBT) follow-up examination between days 44 and 50 to evaluate the effect of Helicobacter pylori eradication.
The safety tolerance assessment incudes assessment of adverse events (AE), serious adverse events (SAE), drug-related AEs, and AEs leading to withdrawal.
The number and incidence of all adverse events were summarized according to the respective trial group, systemic organ classification and preferred terminology.
By trial group, according to the CTCA 5.0 rating, the list describes the incidence of adverse events in each trial group (occurred in each trial group alone, in 2 groups or 3 groups).
By trial group, the mean, standard deviation, median, minimum and maximum values of vital signs (blood pressure, breathing, pulse and body temperature) and laboratory indicators before and after drug administration were calculated, and when necessary, paired t-test or non-parametric test were used for before-and-after comparison.
SAE and Suspected Unintended Serious Adverse Reactions (SUSAR) were listed separately.

[1] = Group A: Compound I 200 mg BID + rabeprazole sodium 20 mg BID
[2] = Group A: Compound I 200 mg BID + rabeprazole sodium 20 mg BID, N = 10
[3] = Group B: Compound I 400 mg BID + rabeprazole sodium 20 mg BID
[4] = Group B: Compound I 400 mg BID + rabeprazole sodium 20 mg BID, N = 10
[5] = Group C: Compound I 600 mg BID + rabeprazole sodium 20 mg BID
[6] = Group C: Compound I 600 mg BID + rabeprazole sodium 20 mg BID, N = 10
[7] = Group D: Compound I 400 mg BID + rabeprazole sodium 20 mg BID + amoxicillin 1 g BID
[8] = Group D: Compound I 400 mg BID + rabeprazole sodium 20 mg BID + amoxicillin 1 g BID, N = 10

## CO[C@H]1/C=C/O[C@@]2(C)Oc3c(C)c(O)c4c(c3C2=O)C2=NC3(CCN(CCn5c([N+](=O)[O-])cnc5C)CC3)NC2=C(NC(=O)/C(C)=C\C=C\[C@H](C)[C@H](O)[C@@H](C)[C@@H](O)[C@@H](C)[C@H](OC(C)=O)[C@@H]1C)C4=O [Compound I, 4-Deoxy-3,4-[2-spiro-[1-[2-(2-methyl-5-nitro-imidazol-1-yl)ethyl]-piperidin-4-yl]]-(1H)-imidazo-(2,5-dihydro)rifamycin]
[1]
  Elevated serum creatinine, number of cases: 4 cases
  Incidence of elevated serum creatinine (common AE associated with the combination therapy): 30%
  Incidence of hyperglycemia (common AE associated with the combination therapy): 20%
[2]
  Drug related TEAE (patients/episodes): (6/18)
  Incidence of AEs: Drug related TEAE: 60%
  Incidence of AEs: TEAE: 60%
  TEAE (patients/episodes): (6/18)
[3]
  Elevated serum creatinine, number of cases: 1 case
  Grade 3 AEs: 3
  Incidence of elevated hemobilirubin (common AE associated with the combination therapy): Group B: elevated hemobilirubin (20%), hyperglycemia (20%);
  Incidence of hyperglycemia (common AE associated with the combination therapy): Group B: elevated hemobilirubin (20%), hyperglycemia (20%);
[4]
  Drug related TEAE (patients/episodes): (7/9)
  Incidence of AEs: Drug related TEAE: 70%
  Incidence of AEs: TEAE: 80%
  TEAE (patients/episodes): (8/12)
[5]
  Common adverse events with incidence of ≥15% associated with the combination therapy: Group C: absent;
  Elevated serum creatinine, number of cases: 2 cases
[6]
  Drug related TEAE (patients/episodes): (5/8)
  Incidence of AEs: Drug related TEAE: 50%
  Incidence of AEs: TEAE: 50%
  TEAE (patients/episodes): (5/8)
[7]
  Elevated serum creatinine, number of cases: 2 cases
  Incidence of elevated alanine aminotransferase (common AE associated with the combination therapy): Group D: elevated alanine aminotransferase (20%), elevated aspartic acid aminotransferase (20%), hypertriglyceridemia (20%), hyperuricemia (20%), rash (20%), papules (20%).
  Incidence of elevated aspartic acid aminotransferase (common AE associated with the combination therapy): Group D: elevated alanine aminotransferase (20%), elevated aspartic acid aminotransferase (20%), hypertriglyceridemia (20%), hyperuricemia (20%), rash (20%), papules (20%).
  Incidence of hypertriglyceridemia (common AE associated with the combination therapy): Group D: elevated alanine aminotransferase (20%), elevated aspartic acid aminotransferase (20%), hypertriglyceridemia (20%), hyperuricemia (20%), rash (20%), papules (20%).
  Incidence of hyperuricemia (common AE associated with the combination therapy): Group D: elevated alanine aminotransferase (20%), elevated aspartic acid aminotransferase (20%), hypertriglyceridemia (20%), hyperuricemia (20%), rash (20%), papules (20%).
  Incidence of papules (common AE associated with the combination therapy): Group D: elevated alanine aminotransferase (20%), elevated aspartic acid aminotransferase (20%), hypertriglyceridemia (20%), hyperuricemia (20%), rash (20%), papules (20%).
  Incidence of rash (common AE associated with the combination therapy): Group D: elevated alanine aminotransferase (20%), elevated aspartic acid aminotransferase (20%), hypertriglyceridemia (20%), hyperuricemia (20%), rash (20%), papules (20%).
[8]
  Drug related TEAE (patients/episodes): (7/17)
  Incidence of AEs: Drug related TEAE: 70%
  Incidence of AEs: TEAE: 80%
  TEAE (patients/episodes): (8/19)
Total, Groups A-D
  Decrease in renal creatinine clearance, incidence rate: 7.5%
  Drug-related AEs of grade 1: 45
  Drug-related AEs of grade 2: 6 cases
  Drug-related skin abnormalities (rash, papules, itching), number of cases: 8 cases
  Elevated serum creatinine, incidence rate: 15%
  Elevated serum creatinine, number of cases: 9 cases
  Grade 1 adverse events (CTC AE 5.0), number of cases: 46 cases
  Grade 2 adverse events (CTC AE 5.0), number of cases: 10 cases
  Hyperglycemia (unexpected adverse reaction), incidence: 12.5%
  Skin abnormalities, number of cases: 10 cases
  Unexpected adverse reactions, incidence: 15.0%
Total, Groups A-D, N = 40
  Drug related TEAE (patients/episodes): (25/52)
  Incidence of AEs: Drug related TEAE: 62.5%
  Incidence of AEs: TEAE: 67.5%
  TEAE (patients/episodes): (27/57)
Total, Groups A-D, grade 1
  Hyperglycemia (unexpected adverse reaction), number of cases: 6 cases
  Unexpected adverse reactions, number of cases: 7 cases
Total, Groups A-D, severity all grade 1
  Elevated transaminases, number of cases: 7 cases
Administered continuously for 14 days in asymptomatic healthy people with positive Helicobacter pylori infection
  Safety and tolerability of the combination therapy: good safety and tolerability characteristics
Entire trial, Groups A-D
  Serious adverse events (SAE): no SAE
